The record followed here is US7741346B2, “Angiogenesis inhibitor” (Santen Pharmaceutical Co., Ltd., priority 2001, dated 2010).

Broadly, the melting point is the temperature, or range, at which the solid turns liquid.

`CCCCCN(CCC12CC3CC(CC(C3)C1)C2)C(=O)NCCCc1cccnc1` [Compound No. 1-84, 1-[2-(1-Adamantyl)ethyl]-1-pentyl-3-[3-(3-pyridyl)propyl]urea]: the melting point lay within 99.9 to 105.2 °C.

In turn, `CCCCCN(CCC12CC3CC(CC(C3)C1)C2)C(=O)NCCCCc1ccncc1` [Compound No. 1-87, 1-[2-(1-Adamantyl)ethyl]-1-pentyl-3-[4-(4-pyridyl)butyl]urea] showed a melting point of 74.1 to 78.1 °C.

For the molecule `CCCCCN(CCC12CC3CC(CC(C3)C1)C2)C(=O)NCCCc1ccnc2ccccc12` [Compound No. 1-91, 1-[2-(1-Adamantyl)ethyl]-1-pentyl-3-[3-(4-quinolyl)propyl]urea], the melting point lay within 80.2 to 102 °C.

On to `O=C(NCCCc1ccncc1)N(CCCc1ccccc1)C(c1ccccc1)c1ccccc1` [Compound No. 1-93, 1-Diphenylmethyl-1-(3-phenylpropyl)-3-[3-(4-pyridyl)propyl]urea], for which the melting point lay within 123 to 124.8 °C.

`CCCCCN(CCC12CC3CC(CC(C3)C1)C2)C(=O)NCCC(C)c1ccncc1` (stereo not shown) [Compound No. 1-104, 1-[2-(1-Adamantyl)ethyl]-1-pentyl-3-[3-(4-pyridyl)butyl]urea] gave a melting point of 93 to 98 °C.

In the case of `O=C(NCCCc1ccncc1)N(CCCC(F)(F)F)CCC12CC3CC(CC(C3)C1)C2` [Compound No. 1-105, 1-[2-(1-Adamantyl)ethyl]-3-[3-(4-pyridyl)propyl]-1-(4,4,4-trifluorobutyl)urea], the melting point fell in the range of 142.6 to 145 °C.

Turning to `O=C(NCCCc1ccncc1)N(CCCCC(F)(F)F)CCC12CC3CC(CC(C3)C1)C2` [Compound No. 1-106, 1-[2-(1-Adamantyl)ethyl]-3-[3-(4-pyridyl)propyl]-1-(5,5,5-trifluoropentyl)urea], the melting point is 116.9 to 118.9 °C.

`CCCCCN(CCC12CC3CC(CC(C3)C1)C2)C(=O)NCC(CC)Cc1ccncc1` (stereo not shown) [Compound No. 1-108, 1-[2-(1-Adamantyl)ethyl]-1-pentyl-3-[2-(4-pyridylmethyl)butyl]urea] showed a melting point of 72 to 77 °C.

As for `CCCCCN(CCC12CC3CC(CC(C3)C1)C2)C(=O)NCC(Cc1ccccc1)Cc1ccncc1` (stereo not shown) [Compound No. 1-109, 1-[2-(1-Adamantyl)ethyl]-3-[2-benzyl-3-(4-pyridyl)propyl]-1-pentylurea], the melting point was 111 to 116 °C.

The molecule `CCCCCN(CCC12CC3CC(CC(C3)C1)C2)C(=O)NCC(Cc1ccncc1)Cc1ccncc1` [Compound No. 1-110, 1-[2-(1-Adamantyl)ethyl]-3-[2,2-bis(4-pyridylmethyl)ethyl]-1-pentylurea] registered a melting point of 124 to 136 °C.

As to `O=C(NCCCc1ccncc1)N(CCC12CC3CC(CC(C3)C1)C2)CC(F)(F)F` [Compound No. 1-114, 1-[2-(1-Adamantyl)ethyl]-3-[3-(4-pyridyl)propyl]-1-(2,2,2-trifluoroethyl)urea], the melting point fell in the range of 106.2 to 107.3 °C.

Molecule `CCCCCN(CCc1ccccc1)C(=O)NCC(C)Cc1ccncc1` (stereo not shown) [Compound No. 1-115, 3-[2-Methyl-3-(4-pyridyl)propyl]-1-pentyl-1-phenethylurea] returned a melting point of 49 to 50 °C.

`CC(CNC(=O)N(CCC(F)(F)F)CCC12CC3CC(CC(C3)C1)C2)Cc1ccncc1` (stereo not shown) [Compound No. 1-117, 1-[2-(1-Adamantyl)ethyl]-3-[2-methyl-3-(4-pyridyl)propyl]-1-(3,3,3-trifluoropropyl)urea] registered a melting point of 81.1 to 84.1 °C.

On to `CCCCN(CCCC12CC3CC(CC(C3)C1)C2)C(=O)NCCCc1ccncc1` [Compound No. 1-122, 1-[3-(1-Adamantyl)propyl]-1-butyl-3-[3-(4-pyridyl)propyl]urea], for which the melting point is 79.8 to 80.4 °C.

In the case of `O=C(NCCCc1ccncc1)N(CCCC12CC3CC(CC(C3)C1)C2)CC(F)(F)F` [Compound No. 1-123, 1-[3-(1-Adamantyl)propyl]-3-[3-(4-pyridyl)propyl]-1-(2,2,2-trifluoroethyl)urea], the melting point lay in the range of 88.9 to 90 °C.

As to `CCN(CCCCC12CC3CC(CC(C3)C1)C2)C(=O)NCCCc1ccncc1` [Compound No. 1-124, 1-[4-(1-Adamantyl)butyl]-1-ethyl-3-[3-(4-pyridyl)propyl]urea], the melting point lay within 92.7 to 93.7 °C.

For the molecule `CCCN(CCCCC12CC3CC(CC(C3)C1)C2)C(=O)NCCCc1ccncc1` [Compound No. 1-125, 1-[4-(1-Adamantyl)butyl]-1-propyl-3-[3-(4-pyridyl)propyl]urea], the melting point lay within 110 to 110.5 °C.

Consider `CCCCCN(CCC12CC3CC(CC(C3)C1)C2)C(=O)NCCNc1ccncc1` [Compound No. 1-126, 1-[2-(1-Adamantyl)ethyl]-1-pentyl-3-[2-(4-pyridylamino)ethyl]urea], for which the melting point was 133.9 to 134.5 °C.

In the case of `CCCN(CCCC12CC3CC(CC(C3)C1)C2)C(=O)NCc1ccncc1` [Compound No. 1-128, 1-[3-(1-Adamantyl)propyl]-1-propyl-3-(4-pyridyl)methylurea], the melting point lay within 96 to 98 °C.

Take `CCN(CCCC12CC3CC(CC(C3)C1)C2)C(=O)NCCCc1ccncc1` [Compound No. 1-130, 1-[3-(1-Adamantyl)propyl]-1-ethyl-3-[3-(4-pyridyl)propyl]urea]: the melting point lay within 97.5 to 98.2 °C.

Consider `CCCN(CC(=O)NC12CC3CC(CC(C3)C1)C2)C(=O)NCCCc1ccncc1` [Compound No. 1-132, 1-(1-Adamantyl)aminocarbonylmethyl-1-propyl-3-[3-(4-pyridyl)propyl]urea], for which the melting point was in the range of 132 to 132.5 °C.

`CCCCCN(CCC12CC3CC(CC(C3)C1)C2)C(=O)NCC(C)(C)Cc1ccncc1` [Compound No. 1-135, 1-[2-(1-Adamantyl)ethyl]-3-[2,2-dimethyl-3-(4-pyridyl)propyl]-1-pentylurea] returned a melting point of 82.5 to 84.9 °C.

`CCCCCN(CCC12CC3CC(CC(C3)C1)C2)C(=O)NCCCc1cc[n+](C)cc1.[I-]` [Compound No. 4-1, 4-[3-[3-[2-(1-Adamantyl)ethyl]-3-pentylureido]propyl]-1-methylpyridinium iodide] yielded a melting point of 168 to 171 °C.

Take `OCCN(CCc1ccccc1)C(=S)NCCCc1ccncc1` [Compound No. 7-2, 1-(2-Hydroxyethyl)-1-phenethyl-3-[3-(4-pyridyl)propyl]thiourea]: the melting point was 105.6 to 107.1 °C.

Regarding `S=C1N(CCCc2ccncc2)CCN1CCc1ccccc1` [Compound No. 8-1, 1-Phenethyl-3-[3-(4-pyridyl)propyl]-2-imidazolidinethione], the melting point was in the range of 99.5 to 104 °C.

Consider `CC(=O)NN(CCC12CC3CC(CC(C3)C1)C2)C(=O)NCCCc1ccncc1` [Compound No. 10-1, 1-Acetylamino-1-[2-(1-adamantyl)ethyl]-3-[3-(4-pyridyl)propyl]urea], for which the melting point is 140 to 146 °C.

Turning to `CN(CCN(CCC12CC3CC(CC(C3)C1)C2)C(=O)NCCCc1ccncc1)S(C)(=O)=O` [Compound No. 10-4, 1-[2-(1-Adamantyl)ethyl]-1-[2-[N-methyl-N-(methylsulfonyl)amino]ethyl]-3-[3-(4-pyridyl)propyl]urea], the melting point lay within 164.9 to 167.2 °C.

With `CN(CCN(CCC12CC3CC(CC(C3)C1)C2)C(=O)NCCCc1ccncc1)C(=O)CC(C)(C)C` [Compound No. 10-6, 1-[2-(1-Adamantyl)ethyl]-1-[2-[N-(3,3-dimethylbutyryl)-N-methylamino]ethyl]-3-[3-(4-pyridyl)propyl]urea], the melting point lay within 101.4 to 102.4 °C.

For the molecule `CC(C)(C)OC(=O)NCCN(CCC12CC3CC(CC(C3)C1)C2)C(=O)NCCCc1ccncc1` [Compound No. 10-8, 1-[2-(1-Adamantyl)ethyl]-1-[2-[N-(t-butoxycarbonyl)amino]ethyl]-3-[3-(4-pyridyl)propyl]urea], the melting point lay in the range of 158 to 160.5 °C.

In the case of `CN(CCN(CCC12CC3CC(CC(C3)C1)C2)C(=O)NCCCc1ccncc1)C(=O)OC(C)(C)C(Cl)(Cl)Cl` [Compound No. 10-10, 1-[2-(1-Adamantyl)ethyl]-1-[2-[N-(1,1-dimethyl-2,2,2-trichloroethoxycarbonyl)-N-methylamino}ethyl]-3-[3-(4-pyridyl)propyl]urea], the melting point lay within 47 to 52 °C.

On to `O=C(NCCCc1ccncc1)N(O)CCC12CC3CC(CC(C3)C1)C2` [Compound No. 12-1, 1-[2-(1-Adamantyl)ethyl]-1-hydroxy-3-[3-(4-pyridyl)propyl]urea], for which the melting point lay in the range of 101 to 102.59 °C.

The molecule `CCCCCN(CCC12CC3CC(CC(C3)C1)C2)C(=O)NCCCc1cc[n+]([O-])cc1` [Compound No. 16-1, 4-[3-[3-[2-(1-Adamantyl)ethyl]-3-pentylureido]propyl]pyridine N-oxide] registered a melting point of 97.8 to 127 °C.

In the case of `CCNCCN(CCC12CC3CC(CC(C3)C1)C2)C(=O)NCCCc1ccncc1` [Compound No. 20-1, 1-[2-(1-Adamantyl)ethyl]-1-[2-(N-ethylamino)ethyl]-3-[3-(4-pyridyl)propyl]urea], the melting point is 96.8 to 104.9 °C.

`CCCCCN(CCC12CC3CC(CC(C3)C1)C2)C(=O)NCCC(=O)c1ccncc1` [Compound No. 31-1, 1-[2-(1-Adamantyl)ethyl]-3-[3-oxo-3-(4-pyridyl)propyl]-1-pentylurea] yielded a melting point of 103.5 to 104 °C.
